Results on 2 compounds are retold here after patent publication US11648242B2, “Pharmaceutical composition comprising pimavanserin, process of preparation and use thereof” (Aurobindo Pharma Ltd., priority 2019, dated 2023).

For data set [1] the following is noted: cited from earlier work.
A short description of the next data set: Bulk density of the API. The note with it: native amorphous pimavanserin tartrate API. It is filed as physicochemical.
The nature of data set [2]: Particle size distribution (D90) of the API. It is filed as physicochemical. The note with it: native amorphous pimavanserin tartrate API.

Structures can show the parent of a compound that is named as a salt.

In the case of `CC(C)COc1ccc(CNC(=O)N(Cc2ccc(F)cc2)C2CCN(C)CC2)cc1` [Pimavanserin tartrate, urea, N-[(4-fluorophenyl)methyl]-N-(1-methyl-4-piperidinyl)-N′-[[4-(2methylpropoxy)phenyl]methyl]-, (2R, 3R)-2,3-dihydroxybutanedioate (2:1)], the Solubility in water entry in data set [1] was “freely soluble”.

In “Bulk density of the API”, `CC(C)COc1ccc(CNC(=O)N(Cc2ccc(F)cc2)C2CCN(C)CC2)cc1` [native amorphous pimavanserin tartrate] showed a Bulk density of 0.374 g/mL. In addition, the “Particle size distribution of API (D90)” value in data set [2] is recorded as “about 100 μm”.
